# Reference: US7727933B2, “2-ethyl-4,6-dimethyl-phenyl-substituted spirocyclic tetramic acid derivatives” (Bayer CropScience AG, priority 2003, dated 2010)
# Tests used:
# Format in all cases: in vivo
# Lolium = test: Herbicidal post-emergence action (Example A); conditions: 320 g of a.i./ha, rated visually after about 3 weeks, 100% = plants have died
# Protocol: (§1) Seeds of monocotyledonous and dicotyledonous weed and crop plants are placed into sandy loam in wood fibre pots, covered with soil and cultivated in a greenhouse under good growth conditions. 2-3 weeks after sowing, the test plants are treated at the one-leaf stage. The test compounds, formulated as wettable powders (WP), are, in various dosages with a water application rate of 600 l/ha (converted), with 0.2% of wetting agent added, sprayed onto the green parts of the plants. After the test plants were kept in the greenhouse under optimum growth conditions for about 3 weeks, the effect of the preparations is rated visually in comparison to untreated controls (herbicidal effect in percent (%): 100% effect=the plants have died, 0% effect=like control plants).
# Avena sativa = test: Herbicidal post-emergence action (Example A); conditions: 320 g of a.i./ha, rated visually after about 3 weeks, 100% = plants have died
# Protocol: as §1
# Setaria = test: Herbicidal post-emergence action (Example A); conditions: 320 g of a.i./ha, rated visually after about 3 weeks, 100% = plants have died
# Protocol: as §1
# Summer barley = test: Herbicidal post-emergence action with use of safeners (Example B), crop plant compatibility; conditions: without safener, rated 3-4 weeks after treatment
# Protocol: Seeds of monocotyledonous and dicotyledonous weed and crop plants are placed into sandy loam in wood fibre pots or in plastic pots, covered with soil and cultivated in a greenhouse, during the vegetation period also outdoors outside of the greenhouse, under good growth conditions. 2-3 weeks after sowing, the test plants are treated at the one- to three-leaf stage. The test compounds, formulated as wettable powders (WP) or emulsifiable concentrates (EC) are, in various dosages with a water application rate of 300 l/ha (converted), with wetting agent (0.2 to 0.3%) added, sprayed onto the plants and the surface of the soil. 3-4 weeks after the treatment of the test plants, the effect of the preparations is rated visually in comparison to untreated controls (herbicidal effect in percent (%): 100% effect=the plants have died, 0% effect=like control plants). […]
compound,measurement,setting,value
CCc1cc(C)cc(C)c1C1=C(OC(=O)COC)C2(CCC(OC)CC2)NC1=O (centres unmarked) [Ex. I-b-1],"herbicidal effect in percent, Lolium",Lolium,100%
same,"herbicidal effect in percent, Avena sativa",Avena sativa,100%
same,"herbicidal effect in percent, Setaria",Setaria,90%
same,Summer barley observed (%),Summer barley; 12.5 g of a.i./ha,65%
same,Summer barley observed (%),Summer barley; 25 g of a.i./ha,93%
